# What was measured:
# [1] = Biodistribution of 123I-IMP in rat with verapamil loading; settings: rats
# Description: The rats were decapitated at 2, 5, 10, 30 and 60 minutes after administration. Then the blood was sampled and the organs of interest were excised. After measured the weight of these specimens, the radioactivities of the blood and organs were measured. After half-life of the radioactivities were corrected, the accumulation rate (% dose/g of the tissue) was obtained.
# [2] = Free fraction of 123I-IMP in the blood of rats with verapamil loading; assay type: in vivo, rat
# Description: Under the same conditions as mentioned above concerning the constitution of control and testing group, timings of decapitation, and dose of drugs, administrations of the drugs and decapitations of rats were conducted, and 3-5 ml of blood per one rat was sampled.
# human plasma protein = experiment: Displacement of 123I-IMP binding to human plasma protein; settings: human serum, control without second drug
# [3] = loaded with verapamil about 10 mg/kg, 2 Minutes
# [4] = loaded with verapamil about 10 mg/kg, 5 Minutes
# [5] = loaded with verapamil about 10 mg/kg, 10 Minutes
# [6] = loaded with verapamil about 10 mg/kg, 30 Minutes
# [7] = loaded with verapamil about 10 mg/kg, 60 Minutes
smiles,measurement,setting,value
"CC(C)NC(C)Cc1ccc(I)cc1 (centres unmarked) [123I-IMP, N-isopropyl-p-iodoamphetamine]","Biodistribution of 123I-IMP, Blood","[1]; control group, 2 Minutes",0.198 ± 0.052 % Dose/g Tissue
same,"Biodistribution of 123I-IMP, Brain","[1]; control group, 2 Minutes",1.800 ± 0.418 % Dose/g Tissue
same,"Biodistribution of 123I-IMP, Heart","[1]; control group, 2 Minutes",1.949 ± 0.293 % Dose/g Tissue
same,"Biodistribution of 123I-IMP, Kidney","[1]; control group, 2 Minutes",3.406 ± 0.905 % Dose/g Tissue
same,"Biodistribution of 123I-IMP, Liver","[1]; control group, 2 Minutes",0.506 ± 0.109 % Dose/g Tissue
same,"Biodistribution of 123I-IMP, Lung","[1]; control group, 2 Minutes",11.236 ± 0.780 % Dose/g Tissue
same,"Biodistribution of 123I-IMP, Pancreas","[1]; control group, 2 Minutes",1.503 ± 0.353 % Dose/g Tissue
same,"Biodistribution of 123I-IMP, Spleen","[1]; control group, 2 Minutes",0.880 ± 0.216 % Dose/g Tissue
same,"Biodistribution of 123I-IMP, Stomach","[1]; control group, 2 Minutes",0.302 ± 0.065 % Dose/g Tissue
same,"Biodistribution of 123I-IMP, Blood","[1]; control group, 5 Minutes",0.133 ± 0.005 % Dose/g Tissue
same,"Biodistribution of 123I-IMP, Brain","[1]; control group, 5 Minutes",1.476 ± 0.225 % Dose/g Tissue
same,"Biodistribution of 123I-IMP, Heart","[1]; control group, 5 Minutes",1.014 ± 0.070 % Dose/g Tissue
same,"Biodistribution of 123I-IMP, Kidney","[1]; control group, 5 Minutes",2.285 ± 0.256 % Dose/g Tissue
same,"Biodistribution of 123I-IMP, Liver","[1]; control group, 5 Minutes",0.699 ± 0.061 % Dose/g Tissue
same,"Biodistribution of 123I-IMP, Lung","[1]; control group, 5 Minutes",9.000 ± 0.600 % Dose/g Tissue
same,"Biodistribution of 123I-IMP, Pancreas","[1]; control group, 5 Minutes",1.923 ± 0.445 % Dose/g Tissue
same,"Biodistribution of 123I-IMP, Spleen","[1]; control group, 5 Minutes",0.999 ± 0.355 % Dose/g Tissue
same,"Biodistribution of 123I-IMP, Stomach","[1]; control group, 5 Minutes",0.500 ± 0.078 % Dose/g Tissue
same,"Biodistribution of 123I-IMP, Blood","[1]; control group, 10 Minutes",0.116 ± 0.011 % Dose/g Tissue
same,"Biodistribution of 123I-IMP, Brain","[1]; control group, 10 Minutes",1.006 ± 0.379 % Dose/g Tissue
same,"Biodistribution of 123I-IMP, Heart","[1]; control group, 10 Minutes",0.631 ± 0.111 % Dose/g Tissue
same,"Biodistribution of 123I-IMP, Kidney","[1]; control group, 10 Minutes",1.303 ± 0.190 % Dose/g Tissue
same,"Biodistribution of 123I-IMP, Liver","[1]; control group, 10 Minutes",0.711 ± 0.143 % Dose/g Tissue
same,"Biodistribution of 123I-IMP, Lung","[1]; control group, 10 Minutes",6.279 ± 1.026 % Dose/g Tissue
same,"Biodistribution of 123I-IMP, Pancreas","[1]; control group, 10 Minutes",1.721 ± 0.217 % Dose/g Tissue
same,"Biodistribution of 123I-IMP, Spleen","[1]; control group, 10 Minutes",1.008 ± 0.074 % Dose/g Tissue
same,"Biodistribution of 123I-IMP, Stomach","[1]; control group, 10 Minutes",0.407 ± 0.230 % Dose/g Tissue
same,"Biodistribution of 123I-IMP, Blood","[1]; control group, 30 Minutes",0.136 ± 0.028 % Dose/g Tissue
same,"Biodistribution of 123I-IMP, Brain","[1]; control group, 30 Minutes",1.346 ± 0.345 % Dose/g Tissue
same,"Biodistribution of 123I-IMP, Heart","[1]; control group, 30 Minutes",0.524 ± 0.037 % Dose/g Tissue
same,"Biodistribution of 123I-IMP, Kidney","[1]; control group, 30 Minutes",1.359 ± 0.222 % Dose/g Tissue
same,"Biodistribution of 123I-IMP, Liver","[1]; control group, 30 Minutes",1.192 ± 0.536 % Dose/g Tissue
same,"Biodistribution of 123I-IMP, Lung","[1]; control group, 30 Minutes",5.209 ± 1.446 % Dose/g Tissue
same,"Biodistribution of 123I-IMP, Pancreas","[1]; control group, 30 Minutes",2.032 ± 0.505 % Dose/g Tissue
same,"Biodistribution of 123I-IMP, Spleen","[1]; control group, 30 Minutes",1.356 ± 0.277 % Dose/g Tissue
same,"Biodistribution of 123I-IMP, Stomach","[1]; control group, 30 Minutes",0.885 ± 0.366 % Dose/g Tissue
same,"Biodistribution of 123I-IMP, Blood","[1]; control group, 60 Minutes",0.181 ± 0.006 % Dose/g Tissue
same,"Biodistribution of 123I-IMP, Brain","[1]; control group, 60 Minutes",1.511 ± 0.011 % Dose/g Tissue
same,"Biodistribution of 123I-IMP, Heart","[1]; control group, 60 Minutes",0.540 ± 0.026 % Dose/g Tissue
same,"Biodistribution of 123I-IMP, Kidney","[1]; control group, 60 Minutes",1.585 ± 0.132 % Dose/g Tissue
same,"Biodistribution of 123I-IMP, Liver","[1]; control group, 60 Minutes",1.442 ± 0.164 % Dose/g Tissue
same,"Biodistribution of 123I-IMP, Lung","[1]; control group, 60 Minutes",5.186 ± 0.616 % Dose/g Tissue
same,"Biodistribution of 123I-IMP, Pancreas","[1]; control group, 60 Minutes",1.957 ± 0.345 % Dose/g Tissue
same,"Biodistribution of 123I-IMP, Spleen","[1]; control group, 60 Minutes",1.290 ± 0.138 % Dose/g Tissue
same,"Biodistribution of 123I-IMP, Stomach","[1]; control group, 60 Minutes",1.245 ± 0.343 % Dose/g Tissue
same,"Biodistribution of 123I-IMP, Blood",[1]; [3],0.238 ± 0.083 % Dose/g Tissue
same,"Biodistribution of 123I-IMP, Brain",[1]; [3],1.584 ± 0.425 % Dose/g Tissue
same,"Biodistribution of 123I-IMP, Heart",[1]; [3],3.769 ± 0.911 % Dose/g Tissue
same,"Biodistribution of 123I-IMP, Kidney",[1]; [3],1.424 ± 0.313 % Dose/g Tissue
same,"Biodistribution of 123I-IMP, Liver",[1]; [3],0.287 ± 0.156 % Dose/g Tissue
same,"Biodistribution of 123I-IMP, Lung",[1]; [3],9.234 ± 1.748 % Dose/g Tissue
same,"Biodistribution of 123I-IMP, Pancreas",[1]; [3],1.268 ± 0.375 % Dose/g Tissue
same,"Biodistribution of 123I-IMP, Spleen",[1]; [3],0.052 ± 0.025 % Dose/g Tissue
same,"Biodistribution of 123I-IMP, Stomach",[1]; [3],0.234 ± 0.111 % Dose/g Tissue
same,"Biodistribution of 123I-IMP, Blood",[1]; [4],0.228 ± 0.012 % Dose/g Tissue
same,"Biodistribution of 123I-IMP, Brain",[1]; [4],1.916 ± 0.131 % Dose/g Tissue
same,"Biodistribution of 123I-IMP, Heart",[1]; [4],2.260 ± 0.680 % Dose/g Tissue
same,"Biodistribution of 123I-IMP, Kidney",[1]; [4],1.278 ± 0.381 % Dose/g Tissue
same,"Biodistribution of 123I-IMP, Liver",[1]; [4],0.350 ± 0.130 % Dose/g Tissue
same,"Biodistribution of 123I-IMP, Lung",[1]; [4],8.377 ± 0.563 % Dose/g Tissue
same,"Biodistribution of 123I-IMP, Pancreas",[1]; [4],1.659 ± 0.496 % Dose/g Tissue
same,"Biodistribution of 123I-IMP, Spleen",[1]; [4],0.063 ± 0.250 % Dose/g Tissue
same,"Biodistribution of 123I-IMP, Stomach",[1]; [4],0.164 ± 0.078 % Dose/g Tissue
same,"Biodistribution of 123I-IMP, Blood",[1]; [5],0.139 ± 0.003 % Dose/g Tissue
same,"Biodistribution of 123I-IMP, Brain",[1]; [5],2.145 ± 0.410 % Dose/g Tissue
same,"Biodistribution of 123I-IMP, Heart",[1]; [5],1.247 ± 0.209 % Dose/g Tissue
same,"Biodistribution of 123I-IMP, Kidney",[1]; [5],1.766 ± 0.678 % Dose/g Tissue
same,"Biodistribution of 123I-IMP, Liver",[1]; [5],0.688 ± 0.237 % Dose/g Tissue
same,"Biodistribution of 123I-IMP, Lung",[1]; [5],6.947 ± 1.486 % Dose/g Tissue
same,"Biodistribution of 123I-IMP, Pancreas",[1]; [5],1.911 ± 0.685 % Dose/g Tissue
same,"Biodistribution of 123I-IMP, Spleen",[1]; [5],0.213 ± 0.118 % Dose/g Tissue
same,"Biodistribution of 123I-IMP, Stomach",[1]; [5],0.377 ± 0.013 % Dose/g Tissue
same,"Biodistribution of 123I-IMP, Blood",[1]; [6],0.098 ± 0.044 % Dose/g Tissue
same,"Biodistribution of 123I-IMP, Brain",[1]; [6],1.529 ± 0.811 % Dose/g Tissue
same,"Biodistribution of 123I-IMP, Heart",[1]; [6],0.471 ± 0.209 % Dose/g Tissue
same,"Biodistribution of 123I-IMP, Kidney",[1]; [6],1.231 ± 0.632 % Dose/g Tissue
same,"Biodistribution of 123I-IMP, Liver",[1]; [6],1.185 ± 0.751 % Dose/g Tissue
same,"Biodistribution of 123I-IMP, Lung",[1]; [6],3.890 ± 2.223 % Dose/g Tissue
same,"Biodistribution of 123I-IMP, Pancreas",[1]; [6],1.877 ± 0.886 % Dose/g Tissue
same,"Biodistribution of 123I-IMP, Spleen",[1]; [6],0.886 ± 0.319 % Dose/g Tissue
same,"Biodistribution of 123I-IMP, Stomach",[1]; [6],0.782 ± 0.621 % Dose/g Tissue
same,"Biodistribution of 123I-IMP, Blood",[1]; [7],0.110 ± 0.002 % Dose/g Tissue
same,"Biodistribution of 123I-IMP, Brain",[1]; [7],1.449 ± 0.281 % Dose/g Tissue
same,"Biodistribution of 123I-IMP, Heart",[1]; [7],0.456 ± 0.039 % Dose/g Tissue
same,"Biodistribution of 123I-IMP, Kidney",[1]; [7],1.242 ± 0.146 % Dose/g Tissue
same,"Biodistribution of 123I-IMP, Liver",[1]; [7],1.639 ± 0.051 % Dose/g Tissue
same,"Biodistribution of 123I-IMP, Lung",[1]; [7],4.133 ± 0.079 % Dose/g Tissue
same,"Biodistribution of 123I-IMP, Pancreas",[1]; [7],1.478 ± 0.161 % Dose/g Tissue
same,"Biodistribution of 123I-IMP, Spleen",[1]; [7],1.193 ± 0.129 % Dose/g Tissue
same,"Biodistribution of 123I-IMP, Stomach",[1]; [7],1.058 ± 0.126 % Dose/g Tissue
same,Free fraction (%) of 123I-IMP in the blood of rats,"[2]; control group, 2 Minutes",56.75 ± 9.21%
same,Free fraction (%) of 123I-IMP in the blood of rats,"[2]; control group, 5 Minutes",50.70 ± 10.37%
same,Free fraction (%) of 123I-IMP in the blood of rats,"[2]; control group, 10 Minutes",45.91 ± 3.12%
same,Free fraction (%) of 123I-IMP in the blood of rats,"[2]; control group, 30 Minutes",27.29 ± 4.85%
same,Free fraction (%) of 123I-IMP in the blood of rats,"[2]; control group, 60 Minutes",16.77 ± 4.11%
same,Free fraction (%) of 123I-IMP in the blood of rats,"[2]; test group with verapamil loading, 2 Minutes",52.40 ± 6.00%
same,Free fraction (%) of 123I-IMP in the blood of rats,"[2]; test group with verapamil loading, 5 Minutes",56.52 ± 4.38%
same,Free fraction (%) of 123I-IMP in the blood of rats,"[2]; test group with verapamil loading, 10 Minutes",66.86 ± 6.34%
same,Free fraction (%) of 123I-IMP in the blood of rats,"[2]; test group with verapamil loading, 30 Minutes",38.03 ± 6.69%
same,Free fraction (%) of 123I-IMP in the blood of rats,"[2]; test group with verapamil loading, 60 Minutes",31.86 ± 8.23%
same,free of fraction of 123I-IMP (%),human plasma protein,29.29%
